The results in this text go back to publication PMC8900816, “High-resolution structures of the bound effectors avadomide (CC-122) and iberdomide (CC-220) highlight advantages and limitations of the MsCI4 soaking system” (Acta Crystallographica. Section D, Structural Biology, 2022).

In this test the target is T1, MsCI4 (Magnetospirillum gryphiswaldense, UniProt A4TVL0).
T1 construct: gene MGR_0879; wild-type single-domain bacterial cereblon homologue; pETHis1a, E. coli C41(DE3); His tag removed with TEV; three monomers per asymmetric unit; structural zinc; RED-NHS amine-labelled for MST
T1 sequence (A4TVL0 1-124): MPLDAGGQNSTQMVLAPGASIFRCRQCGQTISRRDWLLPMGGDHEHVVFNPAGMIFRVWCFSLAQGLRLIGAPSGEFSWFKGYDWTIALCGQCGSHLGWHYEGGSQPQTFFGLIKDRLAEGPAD
Kind of test: labelled microscale thermophoresis. Type of test: binding. The settings on record: read-out: MsCI4 (K d, μM) / Labelled MST.

For the compound `Cc1nc2cccc(N)c2c(=O)n1[C@H]1CCC(=O)NC1=O` [Avadomide], the Kd was 4.84 ± 0.3 µM. `O=C1CC[C@H](N2Cc3c(OCc4ccc(CN5CCOCC5)cc4)cccc3C2=O)C(=O)N1` [Iberdomide]: the Kd amounted to 0.409 ± 0.03 µM.
